Assay results reported in US20240024488A1, “COMPOUNDS AND USES THEREOF” (Foghorn Therapeutics Inc., priority 2020, published 2024).

Legend:
HiBit-BRM fusion protein = target: T1, HiBit-BRM fusion protein (Homo sapiens, UniProt P51531); test: HiBiT-BRM cell-based degradation assay (Nano-Glo HiBiT Lytic Detection, 24 h); conditions: HeLa cell line expressing HiBiT-BRM; for DC50: read-out: BRM HiBit Degradation IC50
T1 construct: expressed in transfected cells
Procedure, shortened: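 Percent BRM loss was derived from HiBiT luminescence relative to DMSO-treated cells and cells given 2 μM of a known BRM/BRG1 degrader. Treatment lasted 24 h in HiBiT-BRM HeLa cells, with a top final concentration of 30 μM.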

[1] = target: T2, HiBit-BRG1 fusion protein (Homo sapiens, UniProt P51532); test: HiBiT-BRG1 cell-based degradation assay (Nano-Glo HiBiT Lytic Detection, 24 h); conditions: HeLa cell line expressing HiBit-BRG1 and LgBit; for Dmax: read-out: BRG1 HiBit Degradation Maximum (%); for DC50: read-out: BRMG1 HiBit Degradation IC50
T2 construct: expressed in transfected cells
Procedure, shortened: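 Stable HeLa line co-expressing HiBit-BRG1 and LgBit, 5000 cells/well, treated 24 h in a tissue culture incubator. Lysed with Nano-Glo HiBiT lytic reagent, luminescence read. % degradation normalized to DMSO (high control) and 2 μM reference BRM/BRG1 degrader (low control).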

T1 sequence (P51531 whole entry, the tested form may be a part): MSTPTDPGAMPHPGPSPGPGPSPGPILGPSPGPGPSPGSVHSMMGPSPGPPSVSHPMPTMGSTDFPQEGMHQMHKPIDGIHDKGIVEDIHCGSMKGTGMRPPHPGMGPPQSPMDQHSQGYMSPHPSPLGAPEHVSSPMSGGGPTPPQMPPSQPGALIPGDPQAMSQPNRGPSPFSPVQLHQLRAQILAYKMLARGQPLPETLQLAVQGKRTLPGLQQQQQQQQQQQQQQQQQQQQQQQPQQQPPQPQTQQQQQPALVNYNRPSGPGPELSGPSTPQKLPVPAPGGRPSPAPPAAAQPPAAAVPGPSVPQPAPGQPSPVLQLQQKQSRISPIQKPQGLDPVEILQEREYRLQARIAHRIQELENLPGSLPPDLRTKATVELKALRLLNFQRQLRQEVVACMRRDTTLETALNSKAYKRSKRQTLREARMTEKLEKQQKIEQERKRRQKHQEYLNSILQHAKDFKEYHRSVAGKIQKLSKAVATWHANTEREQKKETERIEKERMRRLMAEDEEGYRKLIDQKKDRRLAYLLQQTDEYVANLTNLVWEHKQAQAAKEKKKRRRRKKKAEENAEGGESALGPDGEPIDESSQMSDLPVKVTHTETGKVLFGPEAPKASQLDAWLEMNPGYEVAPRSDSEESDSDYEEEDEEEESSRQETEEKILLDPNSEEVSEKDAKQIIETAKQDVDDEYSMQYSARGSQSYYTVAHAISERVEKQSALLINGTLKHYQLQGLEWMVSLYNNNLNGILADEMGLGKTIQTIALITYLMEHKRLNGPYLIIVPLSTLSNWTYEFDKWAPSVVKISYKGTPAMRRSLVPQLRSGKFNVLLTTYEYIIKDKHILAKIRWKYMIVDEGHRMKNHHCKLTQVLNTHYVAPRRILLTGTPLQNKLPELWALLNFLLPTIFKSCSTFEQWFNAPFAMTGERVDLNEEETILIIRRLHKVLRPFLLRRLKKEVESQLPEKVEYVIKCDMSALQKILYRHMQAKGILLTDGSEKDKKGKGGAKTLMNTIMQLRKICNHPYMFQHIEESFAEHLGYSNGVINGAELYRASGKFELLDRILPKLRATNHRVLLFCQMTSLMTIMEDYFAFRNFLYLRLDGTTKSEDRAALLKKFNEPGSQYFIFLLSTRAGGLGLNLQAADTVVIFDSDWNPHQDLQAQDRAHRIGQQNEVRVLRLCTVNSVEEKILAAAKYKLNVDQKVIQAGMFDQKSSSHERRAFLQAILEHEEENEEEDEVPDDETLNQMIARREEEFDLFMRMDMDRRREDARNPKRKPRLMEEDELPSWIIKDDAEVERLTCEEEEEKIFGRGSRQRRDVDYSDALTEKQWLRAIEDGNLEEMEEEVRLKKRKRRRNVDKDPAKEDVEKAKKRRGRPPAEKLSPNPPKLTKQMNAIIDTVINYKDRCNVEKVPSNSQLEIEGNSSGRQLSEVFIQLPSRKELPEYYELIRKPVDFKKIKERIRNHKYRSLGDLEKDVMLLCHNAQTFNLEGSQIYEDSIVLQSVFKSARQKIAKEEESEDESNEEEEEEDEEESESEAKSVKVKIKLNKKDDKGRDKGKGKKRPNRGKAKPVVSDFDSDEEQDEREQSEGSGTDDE
T2 sequence (P51532 whole entry, the tested form may be a part): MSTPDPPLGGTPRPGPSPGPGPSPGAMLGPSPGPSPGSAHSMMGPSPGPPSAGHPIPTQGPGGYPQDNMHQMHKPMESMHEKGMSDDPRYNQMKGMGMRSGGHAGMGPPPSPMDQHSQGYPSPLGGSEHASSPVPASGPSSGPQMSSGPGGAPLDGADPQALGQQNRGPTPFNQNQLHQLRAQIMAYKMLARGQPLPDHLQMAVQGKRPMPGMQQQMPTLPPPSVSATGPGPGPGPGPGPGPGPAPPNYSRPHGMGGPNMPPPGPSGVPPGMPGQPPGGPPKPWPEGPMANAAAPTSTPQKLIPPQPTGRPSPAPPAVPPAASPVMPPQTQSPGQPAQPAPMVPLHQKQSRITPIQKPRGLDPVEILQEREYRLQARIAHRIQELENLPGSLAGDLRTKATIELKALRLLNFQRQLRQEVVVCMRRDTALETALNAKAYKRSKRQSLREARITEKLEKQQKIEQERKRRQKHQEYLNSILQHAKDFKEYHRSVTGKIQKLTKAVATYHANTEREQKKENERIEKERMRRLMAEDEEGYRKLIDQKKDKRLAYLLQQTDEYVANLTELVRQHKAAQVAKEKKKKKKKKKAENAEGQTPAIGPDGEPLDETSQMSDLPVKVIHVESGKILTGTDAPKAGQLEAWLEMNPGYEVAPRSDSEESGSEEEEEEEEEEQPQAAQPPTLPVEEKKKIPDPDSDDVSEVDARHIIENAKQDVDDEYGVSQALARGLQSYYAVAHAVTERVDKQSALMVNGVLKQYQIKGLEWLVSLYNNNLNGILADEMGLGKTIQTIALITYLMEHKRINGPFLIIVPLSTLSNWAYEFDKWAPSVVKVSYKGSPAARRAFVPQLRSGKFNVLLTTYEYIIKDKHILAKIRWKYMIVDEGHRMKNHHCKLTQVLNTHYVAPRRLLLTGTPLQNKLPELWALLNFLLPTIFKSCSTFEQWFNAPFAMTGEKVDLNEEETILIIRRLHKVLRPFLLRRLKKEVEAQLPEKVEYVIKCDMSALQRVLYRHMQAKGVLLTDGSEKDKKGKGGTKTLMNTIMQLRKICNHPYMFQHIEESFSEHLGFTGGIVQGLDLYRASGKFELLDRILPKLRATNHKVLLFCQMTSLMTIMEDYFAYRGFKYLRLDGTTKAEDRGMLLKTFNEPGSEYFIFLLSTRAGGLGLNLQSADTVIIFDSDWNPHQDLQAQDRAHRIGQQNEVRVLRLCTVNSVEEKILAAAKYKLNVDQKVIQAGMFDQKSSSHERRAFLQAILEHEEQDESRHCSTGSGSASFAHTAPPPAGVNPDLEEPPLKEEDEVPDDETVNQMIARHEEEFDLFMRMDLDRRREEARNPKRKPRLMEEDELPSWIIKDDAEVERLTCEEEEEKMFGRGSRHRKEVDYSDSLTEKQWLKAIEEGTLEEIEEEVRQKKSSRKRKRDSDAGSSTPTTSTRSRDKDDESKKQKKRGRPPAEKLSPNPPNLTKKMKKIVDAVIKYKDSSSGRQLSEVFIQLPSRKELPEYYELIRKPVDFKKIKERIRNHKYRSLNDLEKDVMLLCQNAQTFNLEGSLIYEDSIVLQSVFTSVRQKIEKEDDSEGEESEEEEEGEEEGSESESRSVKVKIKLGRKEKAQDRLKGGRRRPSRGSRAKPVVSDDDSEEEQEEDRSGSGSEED

Row | Structure (SMILES) | BRM HiBit Degradation Maximum (%) (HiBit-BRM fusion protein) | DC50 (HiBit-BRM fusion protein) [nM] | Dmax [1] [%] | DC50 [1] [nM]
1 | Cc1ncsc1-c1ccc([C@H](C)NC(=O)[C@@H]2C[C@@H](O)CN2C(=O)[C@@H](c2cc(N3CCC(CN4CCc5[nH]c6nnc(-c7ccccc7O)cc6c5[C@H]4C)CC3)no2)C(C)C)cc1 (racemic) [Compound 81, (2S,4R)-4-hydroxy-1-[(2R)-2-[3-(4-{[(3R)-12-(2-hydroxyphenyl)-3-methyl-4,8,10,11-tetraazatricyclo[7.4.0.0^{2,7}]trideca-1(13),2(7),9,11-tetraen-4-yl]methyl}piperidin-1-yl)-1,2-oxazol-5-yl]-3-methylbutanoyl]-N-[(1S)-1-[4-(4-methyl-1,3-thiazol-5-yl)phenyl]ethyl]pyrrolidine-2-carboxamide] | A (“A” indicates maximum degradation ≥ 75%) | > 10 | > 75 | > 100
2 | Cc1ncsc1-c1ccc([C@H](C)NC(=O)[C@@H]2C[C@@H](O)CN2C(=O)[C@@H](c2cc(N3CCC(C(=O)N4CCc5[nH]c6nnc(-c7ccccc7O)cc6c5[C@H]4C)CC3)no2)C(C)C)cc1 (racemic) [Compound 82, (2S,4R)-4-hydroxy-1-((R)-2-(3-(4-((R)-3-(2-hydroxyphenyl)-5-methyl-6,7,8,9-tetrahydro-5H-pyrido[3′,4′:4,5]pyrrolo[2,3-c]pyridazine-6-carbonyl)piperidin-1-yl)isoxazol-5-yl)-3-methylbutanoyl)-N-((S)-1-(4-(4-methylthiazol-5-yl)phenyl)ethyl)pyrrolidine-2-carboxamide] | A (“A” indicates maximum degradation ≥ 75%) | < 10 | > 75 | > 100
3 | Cc1ncsc1-c1ccc([C@H](C)NC(=O)[C@@H]2C[C@@H](O)CN2C(=O)[C@@H](c2cc(N3CCC(CN4CCc5[nH]c6nnc(-c7ccccc7O)cc6c5[C@@H]4C)CC3)no2)C(C)C)cc1 (racemic) [Compound 83, (2S,4R)-4-hydroxy-1-[(2R)-2-[3-(4-{[(3S)-12-(2-hydroxyphenyl)-3-methyl-4,8,10,11-tetraazatricyclo[7.4.0.0^{2,7}]trideca-1(13),2(7),9,11-tetraen-4-yl]methyl}piperidin-1-yl)-1,2-oxazol-5-yl]-3-methylbutanoyl]-N-[(1S)-1-[4-(4-methyl-1,3-thiazol-5-yl)phenyl]ethyl]pyrrolidine-2-carboxamide] | A (“A” indicates maximum degradation ≥ 75%) | > 10 | > 75 | > 10
4 | Cc1ncsc1-c1ccc([C@H](C)NC(=O)[C@@H]2C[C@@H](O)CN2C(=O)[C@@H](c2cc(OCCCN3CC4(Cc5cc(-c6ccccc6O)nnc5N4)C3)no2)C(C)C)cc1 (racemic) [Compound 84, (2S,4R)-4-hydroxy-1-((R)-2-(3-(3-(3′-(2-hydroxyphenyl)-5′,7′-dihydrospiro[azetidine-3,6′-pyrrolo[2,3-c]pyridazin]-1-yl)propoxy)isoxazol-5-yl)-3-methylbutanoyl)-N-((S)-1-(4-(4-methylthiazol-5-yl)phenyl)ethyl)pyrrolidine-2-carboxamide] | C (“C” indicates maximum degradation < 50%) | – | < 50 | –
5 | Cc1ncsc1-c1ccc([C@H](C)NC(=O)[C@@H]2C[C@@H](O)CN2C(=O)[C@@H](c2cc(N3CCC(C(=O)N4CCc5[nH]c6nnc(-c7ccccc7O)cc6c5[C@@H]4C)CC3)no2)C(C)C)cc1 (racemic) [Compound 86, (2S,4R)-4-hydroxy-1-((R)-2-(3-(4-((S)-3-(2-hydroxyphenyl)-5-methyl-6,7,8,9-tetrahydro-5H-pyrido[3′,4′:4,5]pyrrolo[2,3-c]pyridazine-6-carbonyl)piperidin-1-yl)isoxazol-5-yl)-3-methylbutanoyl)-N-((S)-1-(4-(4-methylthiazol-5-yl)phenyl)ethyl)pyrrolidine-2-carboxamide] | A (“A” indicates maximum degradation ≥ 75%) | > 100 | < 50 | –
6 | Cc1ncsc1-c1ccc([C@H](C)NC(=O)[C@@H]2C[C@@H](O)CN2C(=O)[C@@H](c2cc(N(C)CCN3CC4(Cc5cc(-c6ccccc6O)nnc5N4)C3)no2)C(C)C)cc1 (racemic) [Compound 87, (2S,4R)-4-hydroxy-1-((R)-2-(3-((2-(3′-(2-hydroxyphenyl)-5′,7′-dihydrospiro[azetidine-3,6′-pyrrolo[2,3-c]pyridazin]-1-yl)ethyl)(methyl)amino)isoxazol-5-yl)-3-methylbutanoyl)-N-((S)-1-(4-(4-methylthiazol-5-yl)phenyl)ethyl)pyrrolidine-2-carboxamide] | C (“C” indicates maximum degradation < 50%) | – | < 50 | –
7 | Cc1ncsc1-c1ccc(CNC(=O)[C@@H]2C[C@@H](O)CN2C(=O)[C@@H](NC(=O)[C@H]2CC[C@H](c3cnc(N4CCC(c5cc6cc(-c7ccccc7O)nnc6[nH]5)CC4)nc3)CC2)C(C)(C)C)cc1 (racemic) [Compound 93, (2S,4R)-4-hydroxy-1-((S)-2-((1r,4S)-4-(2-(4-(3-(2-hydroxyphenyl)-7H-pyrrolo[2,3-c]pyridazin-6-yl)piperidin-1-yl)pyrimidin-5-yl)cyclohexane-1-carboxamido)-3,3-dimethylbutanoyl)-N-(4-(4-methylthiazol-5-yl)benzyl)pyrrolidine-2-carboxamide] | A (“A” indicates maximum degradation ≥ 75%) | > 10 | > 75 | > 100
8 | Cc1ncsc1-c1ccc(CNC(=O)[C@@H]2C[C@@H](O)CN2C(=O)[C@@H](NC(=O)[C@H]2CC[C@@H](c3cnc(N4CCC(c5cc6cc(-c7ccccc7O)nnc6[nH]5)CC4)nc3)CC2)C(C)(C)C)cc1 (racemic) [Compound 94, (2S,4R)-4-hydroxy-1-((S)-2-((1s,4R)-4-(2-(4-(3-(2-hydroxyphenyl)-7H-pyrrolo[2,3-c]pyridazin-6-yl)piperidin-1-yl)pyrimidin-5-yl)cyclohexane-1-carboxamido)-3,3-dimethylbutanoyl)-N-(4-(4-methylthiazol-5-yl)benzyl)pyrrolidine-2-carboxamide] | A (“A” indicates maximum degradation ≥ 75%) | > 10 | < 50 | –
9 | Cc1ncsc1-c1ccc([C@H](C)NC(=O)[C@@H]2C[C@@H](O)CN2C(=O)[C@@H](c2cc(OCC(=O)N3CC4(Cc5cc(-c6ccccc6O)nnc5N4)C3)no2)C(C)C)cc1 (racemic) [Compound 95, (2S,4R)-4-hydroxy-1-((R)-2-(3-(2-(3′-(2-hydroxyphenyl)-5′,7′-dihydrospiro[azetidine-3,6′-pyrrolo[2,3-c]pyridazin]-1-yl)-2-oxoethoxy)isoxazol-5-yl)-3-methylbutanoyl)-N-((S)-1-(4-(4-methylthiazol-5-yl)phenyl)ethyl)pyrrolidine-2-carboxamide] | B (“B” indicates maximum degradation ≥ 50%) | > 1000 | < 50 | –
10 | Cc1ncsc1-c1ccc([C@H](C)NC(=O)[C@@H]2C[C@@H](O)CN2C(=O)[C@@H](c2cc(N3CCC(CN4CC5(Cc6cc(-c7ccccc7O)nnc6N5)C4)CC3)no2)C(C)C)cc1 (racemic) [Compound 96, (2S,4R)-4-hydroxy-1-((R)-2-(3-(4-((3′-(2-hydroxyphenyl)-5′,7′-dihydrospiro[azetidine-3,6′-pyrrolo[2,3-c]pyridazin]-1-yl)methyl)piperidin-1-yl)isoxazol-5-yl)-3-methylbutanoyl)-N-((S)-1-(4-(4-methylthiazol-5-yl)phenyl)ethyl)pyrrolidine-2-carboxamide] | A (“A” indicates maximum degradation ≥ 75%) | > 10 | > 50 | > 100
11 | Cc1ncsc1-c1ccc([C@H](C)NC(=O)[C@@H]2C[C@@H](O)CN2C(=O)[C@@H](c2cc(N3CCC(C(=O)N4CC5(Cc6cc(-c7ccccc7O)nnc6N5)C4)CC3)no2)C(C)C)cc1 (racemic) [Compound 97, (2S,4R)-4-hydroxy-1-((R)-2-(3-(4-(3′-(2-hydroxyphenyl)-5′,7′-dihydrospiro[azetidine-3,6′-pyrrolo[2,3-c]pyridazine]-1-carbonyl)piperidin-1-yl)isoxazol-5-yl)-3-methylbutanoyl)-N-((S)-1-(4-(4-methylthiazol-5-yl)phenyl)ethyl)pyrrolidine-2-carboxamide] | A (“A” indicates maximum degradation ≥ 75%) | > 100 | < 50 | –
12 | Cc1ncsc1-c1ccc([C@H](C)NC(=O)[C@@H]2C[C@@H](O)CN2C(=O)[C@@H](c2cc(N3CCC(N4CC5(Cc6cc(-c7ccccc7O)nnc6N5)C4)CC3)no2)C(C)C)cc1 (racemic) [Compound 98, (2S,4R)-4-hydroxy-1-((R)-2-(3-(4-(3′-(2-hydroxyphenyl)-5′,7′-dihydrospiro[azetidine-3,6′-pyrrolo[2,3-c]pyridazin]-1-yl)piperidin-1-yl)isoxazol-5-yl)-3-methylbutanoyl)-N-((S)-1-(4-(4-methylthiazol-5-yl)phenyl)ethyl)pyrrolidine-2-carboxamide] | A (“A” indicates maximum degradation ≥ 75%) | > 10 | < 50 | –
